Values of other authors as cited in US11414421B2, “Process for the preparation of ribociclib succinate and its novel crystalline forms thereof” (NATCO PHARMA LTD, priority 2018, dated 2022).
Read-outs that look alike come from different tables or passages of the source.

CN(C)C(=O)c1cc2cnc(Nc3ccc(N4CCNCC4)cn3)nc2n1C1CCCC1.O=C(O)CCC(=O)O [Ribociclib succinate, 7-cyclopentyl-N,N-dimethyl-2-{[5-(piperazin-1-yl)pyridin-2-yl]amino}-7H-pyrrolo [2,3-d]pyrimidine-6-carboxamide succinate (1/1)]
absorbs moisture (relative humidity 0-90-0% RH): up to 2.0%
absorbs moisture (second value, printed as 0-90-0% RH): up to 0.5%
